Test results from US7693320B2, “Three time point lung cancer detection, diagnosis and assessment of prognosis” (Yeda Research and Development Co. Ltd., priority 2004, dated 2010).

What was measured:
[1] = cited from earlier work
[2] = parameters: species or system patients; conditions: human, in vivo, iv
From the text: For example, in a CT application, HU units (Hounsfield Units) measuring signal intensity S(t) are converted to Ultravist 300 concentration units (ml ultravist 300 solution/liter saline). The relationship between the measured signal intensity S(t) in HU and the concentration C(t) of contrast material (in ml per l) is described by: S(t)=p+qC(t) (1) where p and q are parameters to be determined.
Enhancement, E(t), is defined as the difference in signal intensities before and after contrast material injection: E(t)=S(t)−S(t0)=q[C(t)−C(t0)] (2)
The experimental factor that converts HU units to contrast material concentration units can be determined by preparing tubes with different concentrations of Ultravist 300 in normal saline. The tubes can then be scanned by the CT.
For example, for prepared concentrations, C (in ml Ultravist 300 per 1 saline), may be in the range of 0 to 2% (20 ml per l) which is approximately the concentration in the blood after the injection. […] (The dose of 1.5 ml/kg in a 70 kg patient corresponds to ˜20 ml/l, about 2% in blood.)
The contrast agent for the CT was Iopromide (Ultravist 300; Schering) at a dose of 1.5 ml/kg, delivered through the antecubital vein at a rate of 3 ml/sec using an automatic injector (EnVision CT™). The patients were instructed to hold their breath following maximal expiration during the scanning, to decrease movement.
For each patient, the inventors recorded the signal intensity, S, of a central ROI in the aorta before contrast administration and at a selected time point after contrast injection. The inventors in the research study used the relation between HU and concentration units of Ultravist 300 (see above) to convert the measured enhancement to the corresponding concentration in the aorta, Cp(t), assuming similar pharmacokinetics for all patients with normal kidney function. Cp(t) in ml contrast agent per liter blood was fitted to the equation: Cp(t)=D(a1e^−m1^t+a2e^−m2^t) D=dose in ml/kg […] Eq. 3. to obtain: a1=8.48 kg/l, a2=7.34 kg/l, m1=1.43 min^−1, m2=0.1 min^−1.
FIG. 2 illustrates enhancement (as defined in Eq. 2) in the aorta as a function of time after Iopromide (ultravist 300) injection at a dose of 0.15 ml/kg. The decay in the enhancement followed eq. 3 using the concentration to enhancement conversion (equation 2).

a1 (amplitude of Cp(t)=D(a1e^-m1t+a2e^-m2t)) [2]: 8.48 kg/L | a2 (amplitude of Cp(t)=D(a1e^-m1t+a2e^-m2t)) [2]: 7.34 kg/L | m1 (decay rate constant of Cp(t)) [2]: 1.43 min⁻¹ | m2 (decay rate constant of Cp(t)) [2]: 0.1 min⁻¹
SMILES: COCC(=O)Nc1c(I)c(C(=O)NCC(O)CO)c(I)c(C(=O)N(C)CC(O)CO)c1I (stereo not shown) [Iopromide]
fraction of the dosage excreted in feces ([1]; following IV administration): 1.5% | half-life of distribution in the extracellular space ([1]; following IV administration): 3 min | elimination half-life ([1]; patients of normal kidney function, irrespective of the dose): ~2 h
